Assay results reported in PMC12677699, “Utilizing Proteolytic‐Resistant Nano‐Short Peptide Based on Naphthyl Tail‐Anchored to Combat Bacterial Infections” (Advanced Science, 2025).
Values after ≈ are worked out from the molar mass of the structure shown. Non-standard residues stand in square brackets, D forms with d. Residues, ends and D or L forms follow the SMILES beside them. ξ: configuration not given here. 2Nal = N[C@@H](Cc1ccc2ccccc2c1)C(=O)O; Ahp(2) = CCCCC[C@H](N)C(=O)O; ξAhp(2) = CCCCCC(N)C(=O)O

Experiments:
[1] = system: A. baumannii AB1901; assay: MIC against clinical strain; assay type: cell-based; details: Acinetobacter baumannii, AB1901, read-out: MIC, A. baumannii AB1901
Method: (§1) The MIC values of the nano‐short peptides were determined according to standard protocols.^[ [63] ^] Bacterial strains were revived from cryopreservation and cultured in Mueller–Hinton broth (MHB) to logarithmic growth phase, then diluted to a final density of 0.5–1 × 10⁶ CFU mL^−1. Serial dilutions of the nano‐short peptides were prepared in 0.2% bovine serum albumin (BSA) using a 96‐well plate format. Equal volumes of peptide solutions and bacterial suspensions were combined and incubated at 37 °C for 20–22 h. Bacterial growth was assessed by measuring absorbance at 492 nm, with MHB alone (negative control) and untreated bacterial suspension (positive control) included for reference.

[2] = system: S. aureus 11011; assay: MIC against clinical strain; assay type: cell-based; details: Staphylococcus aureus, 11011, read-out: MIC, S. aureus 11011
Method: as §1

[3] = system: P. aeruginosa 25349; assay: MIC against clinical strain; assay type: cell-based; details: Pseudomonas aeruginosa, 25349, read-out: MIC, P. aeruginosa 25349
Method: as §1

[4] = system: A. baumannii AB1902; assay: MIC against clinical strain; assay type: cell-based; details: Acinetobacter baumannii, AB1902, read-out: MIC, A. baumannii AB1902
Method: as §1

[5] = system: S. aureus 25923; assay type: cell-based, Staphylococcus aureus
Method: as §1

[6] = system: S. aureus 29213; assay type: cell-based, Staphylococcus aureus
Method: as §1

[7] = Critical aggregation concentration, 1,8-ANS fluorescence; assay type: physicochemical; details: 1,8-ANS 1 × 10^−6 M, peptide 2-256 × 10^−6 M in deionized water, 1 h, ex 360 nm, em 420–670 nm, linear fitting of fluorescence intensities
Method: The self‐assembly behavior of nano‐short peptides was characterized by determining the CAC using 1,8‐ANS as a hydrophobic fluorescent probe.^[ [32] ^] Serial peptide dilutions (2‐256 × 10^−6 M in 50 µL deionized water) were prepared in 96‐well plates. 1,8‐ANS powder was solubilized in dimethylformamide (DMF) and added to the 96‐well plates (final concentration of 1 × 10^−6 M), and deionized water solution containing 1,8‐ANS was used as a blank control. After incubation for 1 h, the fluorescence emission spectra were continuously monitored with a microplate reader (Tecan Infinite200 Pro, λ excitation = 360 nm, λ emission = 420–670 nm). CAC values were determined by linear fitting of representative fluorescence intensities.

[8] = system: S. typhimurium 14028; assay type: cell-based, Salmonella typhimurium
Method: as §1

[9] = system: S. typhimurium 7731; assay type: cell-based, Salmonella typhimurium
Method: as §1

[10] = system: E. faecalis 29212; assay type: cell-based, Enterococcus faecalis
Method: as §1

[11] = system: S. pullorum C7913; assay type: cell-based
Method: as §1

[12] = system: E. coli 25922; assay type: cell-based, Escherichia coli
Method: as §1

[13] = system: E. coli UB1005; assay type: cell-based, Escherichia coli
Method: as §1

[14] = system: E. coli 078; assay type: cell-based, Escherichia coli
Method: as §1

[15] = system: MRSA 43300; assay type: cell-based, Methicillin-Resistant Staphylococcus aureus
Method: as §1

[16] = system: P. aeruginosa 27853; assay type: cell-based, Pseudomonas aeruginosa
Method: as §1

[17] = system: P. aeruginosa PAO1; assay type: cell-based, Pseudomonas aeruginosa
Method: as §1

[18] = system: S. epidermidis 12228; assay type: cell-based, Staphylococcus epidermidis
Method: as §1

Structure (SMILES): CC1COc2c(N3CCN(C)CC3)c(F)cc3c(=O)c(C(=O)O)cn1c23 (centres unmarked) [Ofloxacin]
- MIC [1]: 1 µM (≈ 0.361 µg/mL)
- MIC [2]: 128 µM (≈ 46.3 µg/mL)
- MIC [3]: 2 µM (≈ 0.723 µg/mL)
- MIC [4]: 128 µM (≈ 46.3 µg/mL)

Structure (SMILES): CCCCCC(N)C(=O)NC(CCCCC)C(=O)NC(CCCCC)C(=O)NC(CCCCC)C(=O)NC(CCCCC)C(=O)N[C@H](CCCNC(=N)N)C(=O)N[C@@H](CCCNC(=N)N)C(=O)N[C@@H](CCCNC(=N)N)C(=O)N1CCC[C@H]1C(=O)O (some centres unmarked) [Peptide B5] (H-[ξAhp(2)][ξAhp(2)][ξAhp(2)][ξAhp(2)][ξAhp(2)][dR]RRP-OH; N-terminus assumed)
- MIC, S. aureus 25923 [5]: 256 µM (≈ 312 µg/mL)
- MIC, S. aureus 29213 [6]: 256 µM (≈ 312 µg/mL)
- critical aggregation concentration (CAC) [7]: 3.34 µM
- MIC, S. typhimurium 14028 [8]: 256 µM (≈ 312 µg/mL)
- MIC, S. typhimurium 7731 [9]: 256 µM (≈ 312 µg/mL)
- MIC, E. faecalis 29212 [10]: 256 µM (≈ 312 µg/mL)
- MIC, S. pullorum C7913 [11]: 128 µM (≈ 156 µg/mL)
- MIC, E. coli 25922 [12]: 256 µM (≈ 312 µg/mL)
- MIC, E. coli UB1005 [13]: 256 µM (≈ 312 µg/mL)
- MIC, E. coli 078 [14]: 256 µM (≈ 312 µg/mL)
- MIC, MRSA 43300 [15]: 32 µM (≈ 39 µg/mL)
- MIC, P. aeruginosa 27853 [16]: 256 µM (≈ 312 µg/mL)
- MIC, P. aeruginosa PAO1 [17]: 256 µM (≈ 312 µg/mL)
- MIC, S. epidermidis 12228 [18]: 256 µM (≈ 312 µg/mL)

Structure (SMILES): CN[C@H](CC(C)C)C(=O)N[C@H]1C(=O)N[C@@H](CC(N)=O)C(=O)N[C@H]2C(=O)N[C@H]3C(=O)N[C@H](C(=O)N[C@H](C(=O)O)c4cc(O)cc(O)c4-c4cc3ccc4O)[C@H](O)c3ccc(c(Cl)c3)Oc3cc2cc(c3O[C@@H]2O[C@H](CO)[C@@H](O)[C@H](O)[C@H]2O[C@H]2C[C@](C)(N)[C@H](O)[C@H](C)O2)Oc2ccc(cc2Cl)[C@H]1O [Vancomycin]
- MIC [1]: 1 µM (≈ 1.45 µg/mL)
- MIC [2]: 128 µM (≈ 186 µg/mL)
- MIC [3]: 128 µM (≈ 186 µg/mL)
- MIC [4]: 128 µM (≈ 186 µg/mL)

Structure (SMILES): NC[C@H]1O[C@H](O[C@H]2[C@H](O)[C@@H](O[C@H]3O[C@H](CO)[C@@H](O)[C@H](N)[C@H]3O)[C@H](N)C[C@@H]2N)[C@H](O)[C@@H](O)[C@@H]1O [Kanamycin]
- MIC [1]: 128 µM (≈ 62 µg/mL)
- MIC [2]: 128 µM (≈ 62 µg/mL)
- MIC [3]: 128 µM (≈ 62 µg/mL)
- MIC [4]: 128 µM (≈ 62 µg/mL)

Structure (SMILES): N=C(N)NCCC[C@H](NC(=O)[C@H](Cc1ccc2ccccc2c1)NC(=O)[C@H](Cc1ccc2ccccc2c1)NC(=O)[C@H](Cc1ccc2ccccc2c1)NC(=O)[C@H](Cc1ccc2ccccc2c1)NC(=O)[C@H](Cc1ccc2ccccc2c1)NC(=O)[C@@H](N)Cc1ccc2ccccc2c1)C(=O)N[C@H](CCCNC(=N)N)C(=O)N[C@@H](CCCNC(=N)N)C(=O)N1CCC[C@H]1C(=O)O [Peptide N6] (H-[2Nal][2Nal][2Nal][2Nal][2Nal][2Nal]R[dR]RP-OH)
- MIC, S. aureus 25923 [5]: 256 µM (≈ 452 µg/mL)
- MIC, S. aureus 29213 [6]: 256 µM (≈ 452 µg/mL)
- critical aggregation concentration (CAC) [7]: 6.65 µM
- MIC, S. typhimurium 14028 [8]: 256 µM (≈ 452 µg/mL)
- MIC, S. typhimurium 7731 [9]: 256 µM (≈ 452 µg/mL)
- MIC, E. faecalis 29212 [10]: 256 µM (≈ 452 µg/mL)
- MIC, S. pullorum C7913 [11]: 256 µM (≈ 452 µg/mL)
- MIC, E. coli 25922 [12]: 256 µM (≈ 452 µg/mL)
- MIC, E. coli UB1005 [13]: 256 µM (≈ 452 µg/mL)
- MIC, E. coli 078 [14]: 256 µM (≈ 452 µg/mL)
- MIC, MRSA 43300 [15]: 256 µM (≈ 452 µg/mL)
- MIC, P. aeruginosa 27853 [16]: 256 µM (≈ 452 µg/mL)
- MIC, P. aeruginosa PAO1 [17]: 256 µM (≈ 452 µg/mL)
- MIC, S. epidermidis 12228 [18]: 256 µM (≈ 452 µg/mL)

Structure (SMILES): CC(C)(O/N=C(\C(=O)N[C@@H]1C(=O)N2C(C(=O)[O-])=C(C[n+]3ccccc3)CS[C@H]12)c1csc(N)n1)C(=O)O [Ceftazidime]
- MIC [1]: 8 µM (≈ 4.37 µg/mL)
- MIC [2]: 128 µM (≈ 70 µg/mL)
- MIC [3]: 32 µM (≈ 17.5 µg/mL)
- MIC [4]: 128 µM (≈ 70 µg/mL)

Structure (SMILES): CC1(C)S[C@@H]2[C@H](NC(=O)Cc3ccccc3)C(=O)N2[C@H]1C(=O)O [Penicillin sodium]
- MIC [1]: 128 µM
- MIC [2]: 128 µM
- MIC [3]: 128 µM
- MIC [4]: 128 µM

Structure (SMILES): CCCCC[C@H](NC(=O)[C@H](CCCCC)NC(=O)[C@H](CCCCC)NC(=O)[C@@H](N)CCCCC)C(=O)N[C@@H](CCCCC)C(=O)N[C@@H](CCCCC)C(=O)N[C@H](CCCNC(=N)N)C(=O)N[C@@H](CCCNC(=N)N)C(=O)N[C@@H](CCCNC(=N)N)C(=O)N1CCC[C@H]1C(=O)O [Peptide B6] (H-[Ahp(2)][Ahp(2)][Ahp(2)][Ahp(2)][Ahp(2)][Ahp(2)][dR]RRP-OH; N-terminus and C-terminus assumed)
- MIC, S. aureus 25923 [5]: 256 µM (≈ 345 µg/mL)
- MIC, S. aureus 29213 [6]: 256 µM (≈ 345 µg/mL)
- critical aggregation concentration (CAC) [7]: 3.31 µM
- MIC, S. typhimurium 14028 [8]: 256 µM (≈ 345 µg/mL)
- MIC, S. typhimurium 7731 [9]: 256 µM (≈ 345 µg/mL)
- MIC, E. faecalis 29212 [10]: 256 µM (≈ 345 µg/mL)
- MIC, S. pullorum C7913 [11]: 256 µM (≈ 345 µg/mL)
- MIC, E. coli 25922 [12]: 256 µM (≈ 345 µg/mL)
- MIC, E. coli UB1005 [13]: 256 µM (≈ 345 µg/mL)
- MIC, E. coli 078 [14]: 256 µM (≈ 345 µg/mL)
- MIC, MRSA 43300 [15]: 256 µM (≈ 345 µg/mL)
- MIC, P. aeruginosa 27853 [16]: 256 µM (≈ 345 µg/mL)
- MIC, P. aeruginosa PAO1 [17]: 256 µM (≈ 345 µg/mL)
- MIC, S. epidermidis 12228 [18]: 256 µM (≈ 345 µg/mL)

Structure (SMILES): CC[C@H]1OC(=O)[C@H](C)[C@@H](O[C@H]2C[C@@](C)(OC)[C@@H](O)[C@H](C)O2)[C@H](C)[C@@H](O[C@@H]2O[C@H](C)C[C@H](N(C)C)[C@H]2O)[C@](C)(O)C[C@@H](C)C(=O)[C@H](C)[C@@H](O)[C@]1(C)O [Erythromycin]
- MIC [1]: 64 µM (≈ 47 µg/mL)
- MIC [2]: 128 µM (≈ 93.9 µg/mL)
- MIC [3]: 128 µM (≈ 93.9 µg/mL)
- MIC [4]: 128 µM (≈ 93.9 µg/mL)

Structure (SMILES): N=C(N)NCCC[C@H](NC(=O)[C@H](Cc1ccc2ccccc2c1)NC(=O)[C@H](Cc1ccc2ccccc2c1)NC(=O)[C@H](Cc1ccc2ccccc2c1)NC(=O)[C@H](Cc1ccc2ccccc2c1)NC(=O)[C@@H](N)Cc1ccc2ccccc2c1)C(=O)N[C@H](CCCNC(=N)N)C(=O)N[C@@H](CCCNC(=N)N)C(=O)N1CCC[C@H]1C(=O)O [Peptide N5] (H-[2Nal][2Nal][2Nal][2Nal][2Nal]R[dR]RP-OH)
- MIC, S. aureus 25923 [5]: 256 µM (≈ 402 µg/mL)
- MIC, S. aureus 29213 [6]: 256 µM (≈ 402 µg/mL)
- critical aggregation concentration (CAC) [7]: 11.66 µM
- MIC, S. typhimurium 14028 [8]: 256 µM (≈ 402 µg/mL)
- MIC, S. typhimurium 7731 [9]: 256 µM (≈ 402 µg/mL)
- MIC, E. faecalis 29212 [10]: 256 µM (≈ 402 µg/mL)
- MIC, S. pullorum C7913 [11]: 256 µM (≈ 402 µg/mL)
- MIC, E. coli 25922 [12]: 256 µM (≈ 402 µg/mL)
- MIC, E. coli UB1005 [13]: 256 µM (≈ 402 µg/mL)
- MIC, E. coli 078 [14]: 256 µM (≈ 402 µg/mL)
- MIC, MRSA 43300 [15]: 256 µM (≈ 402 µg/mL)
- MIC, P. aeruginosa 27853 [16]: 256 µM (≈ 402 µg/mL)
- MIC, P. aeruginosa PAO1 [17]: 256 µM (≈ 402 µg/mL)
- MIC, S. epidermidis 12228 [18]: 256 µM (≈ 402 µg/mL)
